{
  "source": "paper PMC8689681",
  "about": "(The Journal of Experimental Medicine, 2021)",
  "molecular_target": "ADAM17 (Homo sapiens, UniProt P78536)",
  "sequence (P78536 215-474 limits assumed)": "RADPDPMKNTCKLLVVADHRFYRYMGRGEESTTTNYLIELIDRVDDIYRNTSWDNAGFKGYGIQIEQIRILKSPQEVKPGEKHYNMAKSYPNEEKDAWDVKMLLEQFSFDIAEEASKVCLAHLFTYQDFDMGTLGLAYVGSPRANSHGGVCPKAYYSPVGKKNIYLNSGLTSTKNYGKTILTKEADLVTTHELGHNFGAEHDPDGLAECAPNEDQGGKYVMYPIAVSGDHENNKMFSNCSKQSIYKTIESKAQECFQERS",
  "test": "fluorogenic peptide",
  "type": "biochemical",
  "data": [
    {"smiles": "CC(C)C[C@H](CC(=O)NO)C(=O)N[C@@H](Cc1ccc2ccccc2c1)C(=O)N[C@@H](C)C(=O)NCCN", "note": "[TAPI-1]", "values": [
      {"measurement": "IC50", "result": "0.128 ± 0.0009", "unit": "µM"}
    ]}
  ]
}
